The supplement of paper PMC6045584
± gives the standard deviation of the averaged measurements.

Legend:
CARBOPLATIN [1] = compound: T1, O=C(O)C1(C(=O)O)CCC1.[NH2-].[NH2-].[Pt+2] [CARBOPLATIN]; assay: surviving fraction relative to DMSO-only wells; higher = less growth inhibition; details: exposure time: 5 days
Method in brief: (§1)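 After seeding at 250–500 cells per well in 384-well plates and a 24-hour wait, log-phase tumour cell lines were exposed without interruption for five days to inhibitors at 0.5, 1, 5, 10, 50, 100, 500 and 1000 nM. CellTiter-Glo luminescence was recorded after 10 minutes at room temperature. Viability is reported as surviving fraction, the luminescence normalised to the median of DMSO-only wells.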

[2] = compound: CC(=O)NCC(=O)N1[C@@H]2CC[C@H]1c1ccc(Nc3ncc(C(F)(F)F)c(NC4CCC4)n3)cc12; assay: as above; details: exposure time: 5 days
Method in brief: as §1

PACLITAXEL [3] = compound: T2, CC(=O)O[C@H]1C(=O)[C@@]2(C)[C@H]([C@H](OC(=O)c3ccccc3)[C@]3(O)C[C@H](OC(=O)[C@H](O)[C@@H](NC(=O)c4ccccc4)c4ccccc4)C(C)=C1C3(C)C)[C@]1(OC(C)=O)CO[C@@H]1C[C@@H]2O [PACLITAXEL]; assay: as above; details: exposure time: 5 days
Method in brief: as §1

CELECOXIB [4] = compound: T3, Cc1ccc(-c2cc(C(F)(F)F)nn2-c2ccc(S(N)(=O)=O)cc2)cc1 [CELECOXIB]; assay: as above; details: exposure time: 5 days
Method in brief: as §1

CAMPTOTHECIN [5] = compound: T4, CC[C@@]1(O)C(=O)OCc2c1cc1n(c2=O)Cc2cc3ccccc3nc2-1 [CAMPTOTHECIN]; assay: as above; details: exposure time: 5 days
Method in brief: as §1

YM155 [6] = compound: T5, COCC[n+]1c2c(n(Cc3cnccn3)c1C)C(=O)c1ccccc1C2=O [YM155]; assay: as above; details: exposure time: 5 days
Method in brief: as §1

GEFITINIB [7] = compound: T6, COc1cc2ncnc(Nc3ccc(F)c(Cl)c3)c2cc1OCCCN1CCOCC1 [GEFITINIB]; assay: as above; details: exposure time: 5 days
Method in brief: as §1

[8] = compound: CC(=O)c1c(C)c2cnc(Nc3ccc(N4CCNCC4)cn3)nc2n(C2CCCC2)c1=O; assay: as above; details: exposure time: 5 days
Method in brief: as §1

OSI-906 [9] = compound: T7, C[C@]1(O)C[C@@H](c2nc(-c3ccc4ccc(-c5ccccc5)nc4c3)c3c(N)nccn32)C1 [OSI-906]; assay: as above; details: exposure time: 5 days
Method in brief: as §1

CARBOPLATIN [10] = compound: T1, CARBOPLATIN; assay: area under dose-response curve of surviving fraction (unscaled, Aref=0) (surviving fraction x log10(nM)); higher = more resistant; details: exposure time: 5 days; dose range 0.5-1000 nM
Method in brief: (§2)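 Surviving fractions were fitted by 3-parameter logistic regression in the drc R package to give dose-response survival curves. They came from tumour cell lines treated for five days with eight inhibitor concentrations from 0.5 to 1000 nM and read by CellTiter-Glo luminescence against DMSO-only wells. The area under the curve is the unscaled activity area. It was calculated over log10 dose with Aref = 0.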

[11] = compound: CC(=O)NCC(=O)N1[C@@H]2CC[C@H]1c1ccc(Nc3ncc(C(F)(F)F)c(NC4CCC4)n3)cc12; assay: as above; details: exposure time: 5 days; dose range 0.5-1000 nM
Method in brief: as §2

PACLITAXEL [12] = compound: T2, PACLITAXEL; assay: as above; details: exposure time: 5 days; dose range 0.5-1000 nM
Method in brief: as §2

CELECOXIB [13] = compound: T3, CELECOXIB; assay: as above; details: exposure time: 5 days; dose range 0.5-1000 nM
Method in brief: as §2

CAMPTOTHECIN [14] = compound: T4, CAMPTOTHECIN; assay: as above; details: exposure time: 5 days; dose range 0.5-1000 nM
Method in brief: as §2

YM155 [15] = compound: T5, YM155; assay: as above; details: exposure time: 5 days; dose range 0.5-1000 nM
Method in brief: as §2

GEFITINIB [16] = compound: T6, GEFITINIB; assay: as above; details: exposure time: 5 days; dose range 0.5-1000 nM
Method in brief: as §2

[17] = compound: CC(=O)c1c(C)c2cnc(Nc3ccc(N4CCNCC4)cn3)nc2n(C2CCCC2)c1=O; assay: as above; details: exposure time: 5 days; dose range 0.5-1000 nM
Method in brief: as §2

OSI-906 [18] = compound: T7, OSI-906; assay: as above; details: exposure time: 5 days; dose range 0.5-1000 nM
Method in brief: as §2

Test System: MCF7 BREAST
- surviving fraction (CARBOPLATIN [1]; 0.5 nM): 0.942 ± 0.053
- surviving fraction (CARBOPLATIN [1]; 1 nM): 0.867 ± 0.048
- surviving fraction (CARBOPLATIN [1]; 5 nM): 0.995 ± 0.049
- surviving fraction (CARBOPLATIN [1]; 10 nM): 0.898 ± 0.042
- surviving fraction (CARBOPLATIN [1]; 50 nM): 0.968 ± 0.05
- surviving fraction (CARBOPLATIN [1]; 100 nM): 0.949 ± 0.068
- surviving fraction (CARBOPLATIN [1]; 500 nM): 0.984 ± 0.092
- surviving fraction (CARBOPLATIN [1]; 1000 nM): 0.892 ± 0.018
- surviving fraction ([2]; 0.5 nM): 0.864 ± 0.018
- surviving fraction ([2]; 1 nM): 0.858 ± 0.028
- surviving fraction ([2]; 5 nM): 0.808 ± 0.034
- surviving fraction ([2]; 10 nM): 0.826 ± 0.021
- surviving fraction ([2]; 50 nM): 0.776 ± 0.018
- surviving fraction ([2]; 100 nM): 0.741 ± 0.027
- surviving fraction ([2]; 500 nM): 0.656 ± 0.035
- surviving fraction ([2]; 1000 nM): 0.549 ± 0.026
- surviving fraction (PACLITAXEL [3]; 0.5 nM): 0.863 ± 0.077
- surviving fraction (PACLITAXEL [3]; 1 nM): 0.714 ± 0.016
- surviving fraction (PACLITAXEL [3]; 5 nM): 0.432 ± 0.02
- surviving fraction (PACLITAXEL [3]; 10 nM): 0.383 ± 0.0065
- surviving fraction (PACLITAXEL [3]; 50 nM): 0.372 ± 0.01
- surviving fraction (PACLITAXEL [3]; 100 nM): 0.356 ± 0.0077
- surviving fraction (PACLITAXEL [3]; 500 nM): 0.333 ± 0.013
- surviving fraction (PACLITAXEL [3]; 1000 nM): 0.326 ± 0.012
- surviving fraction (CELECOXIB [4]; 0.5 nM): 0.933 ± 0.053
- surviving fraction (CELECOXIB [4]; 1 nM): 0.922 ± 0.05
- surviving fraction (CELECOXIB [4]; 5 nM): 0.938 ± 0.013
- surviving fraction (CELECOXIB [4]; 10 nM): 0.927 ± 0.035
- surviving fraction (CELECOXIB [4]; 50 nM): 0.937 ± 0.042
- surviving fraction (CELECOXIB [4]; 100 nM): 0.942 ± 0.093
- surviving fraction (CELECOXIB [4]; 500 nM): 1 ± 0.011
- surviving fraction (CELECOXIB [4]; 1000 nM): 1.01 ± 0.033
- surviving fraction (CAMPTOTHECIN [5]; 0.5 nM): 0.731 ± 0.032
- surviving fraction (CAMPTOTHECIN [5]; 1 nM): 0.824 ± 0.025
- surviving fraction (CAMPTOTHECIN [5]; 5 nM): 0.696 ± 0.079
- surviving fraction (CAMPTOTHECIN [5]; 10 nM): 0.556 ± 0.01
- surviving fraction (CAMPTOTHECIN [5]; 50 nM): 0.39 ± 0.0082
- surviving fraction (CAMPTOTHECIN [5]; 100 nM): 0.354 ± 0.011
- surviving fraction (CAMPTOTHECIN [5]; 500 nM): 0.0642 ± 0.0025
- surviving fraction (CAMPTOTHECIN [5]; 1000 nM): 0.0648 ± 0.0052
- surviving fraction (YM155 [6]; 0.5 nM): 0.853 ± 0.076
- surviving fraction (YM155 [6]; 1 nM): 0.883 ± 0.018
- surviving fraction (YM155 [6]; 5 nM): 0.679 ± 0.063
- surviving fraction (YM155 [6]; 10 nM): 0.368 ± 0.033
- surviving fraction (YM155 [6]; 50 nM): 0.0596 ± 0.0041
- surviving fraction (YM155 [6]; 100 nM): 0.043 ± 0.003
- surviving fraction (YM155 [6]; 500 nM): 0.0207 ± 0.00033
- surviving fraction (YM155 [6]; 1000 nM): 0.0226 ± 0.0014
- surviving fraction (GEFITINIB [7]; 0.5 nM): 0.935 ± 0.02
- surviving fraction (GEFITINIB [7]; 1 nM): 0.921 ± 0.032
- surviving fraction (GEFITINIB [7]; 5 nM): 0.924 ± 0.042
- surviving fraction (GEFITINIB [7]; 10 nM): 0.935 ± 0.023
- surviving fraction (GEFITINIB [7]; 50 nM): 0.965 ± 0.017
- surviving fraction (GEFITINIB [7]; 100 nM): 0.951 ± 0.046
- surviving fraction (GEFITINIB [7]; 500 nM): 0.979 ± 0.02
- surviving fraction (GEFITINIB [7]; 1000 nM): 0.964 ± 0.027
- surviving fraction ([8]; 0.5 nM): 0.965 ± 0.043
- surviving fraction ([8]; 1 nM): 0.8934 ± 0.0072
- surviving fraction ([8]; 5 nM): 0.891 ± 0.03
- surviving fraction ([8]; 10 nM): 0.902 ± 0.026
- surviving fraction ([8]; 50 nM): 0.956 ± 0.048
- surviving fraction ([8]; 100 nM): 0.934 ± 0.01
- surviving fraction ([8]; 500 nM): 0.925 ± 0.037
- surviving fraction ([8]; 1000 nM): 0.899 ± 0.032
- surviving fraction (OSI-906 [9]; 0.5 nM): 0.832 ± 0.042
- surviving fraction (OSI-906 [9]; 1 nM): 0.85 ± 0.044
- surviving fraction (OSI-906 [9]; 5 nM): 0.816 ± 0.022
- surviving fraction (OSI-906 [9]; 10 nM): 0.825 ± 0.056
- surviving fraction (OSI-906 [9]; 50 nM): 0.831 ± 0.018
- surviving fraction (OSI-906 [9]; 100 nM): 0.847 ± 0.029
- surviving fraction (OSI-906 [9]; 500 nM): 0.722 ± 0.036
- surviving fraction (OSI-906 [9]; 1000 nM): 0.661 ± 0.013
- area under dose-response curve (CARBOPLATIN [10]): 3.08
- area under dose-response curve [11]: 2.53
- area under dose-response curve (PACLITAXEL [12]): 1.43
- area under dose-response curve (CELECOXIB [13]): 3.11
- area under dose-response curve (CAMPTOTHECIN [14]): 1.55
- area under dose-response curve (YM155 [15]): 1.18
- area under dose-response curve (GEFITINIB [16]): 3.14
- area under dose-response curve [17]: 3.03
- area under dose-response curve (OSI-906 [18]): 2.69
